# Marks after values point to notes of the source that are not given here.
# Legend:
# [1] = system: patients with Dravet syndrome (DS) and Lennox-Gastaut syndrome (LGS); parameters: method as in earlier work; settings: Phase III clinical trials, ref Devinsky et al., 2017a, 2017b, 2018, 2020, 2021, Tang and Fang; cited from earlier work
# [2] = target: T1, human NaV1.6 channel (SCN8A, CHO cells) (Homo sapiens, UniProt Q9UQD0); assay: Planar patch-clamp, biophysical properties (activation, SSFI, recovery from SSFI); type: cell-based; settings: change vs vehicle DMSO at IC50 concentration (CBD 16.6 μM, CBGA 12.0 μM, CBDVA 24.1 μM)
# T1 construct: expressed in transfected cells
# Procedure: (§1) HEK293T cells stably expressing SCN1A or SCN2A and CHO cells stably expressing SCN8A or SCN9A were maintained as previously described ([Richards et al., 2018]; [Milligan et al., 2022]).
# (§2) Patch-clamp recordings were made using a Patchliner® (Nanion Technologies, Munich, Germany) in the whole-cell configuration as previously described ([Richards et al., 2018]; [Milligan et al., 2022]). Briefly, cells were prepared in suspension at a density of 1 × 10^6-5 × 10^7 cells/mL. The external recording solution comprised (in mM): 140 NaCl, 4 KCl, 1 MgCl2, 2 CaCl2, 5 D-glucose, 10 HEPES, pH 7.4 with NaOH, ∼295 mOsm. The internal recording solution comprised (in mM): 50 CsCl, 60 CsF, 10 NaCl, 20 EGTA, 10 HEPES, pH 7.2 with CsOH, ∼285 mOsm. Medium single-hole planar NPC-16 chips with an average resistance of ∼2.5 MΩ were used. Chip and whole-cell capacitance were fully compensated, and 50% series resistance compensation applied. Recordings were acquired at 50 kHz with the low pass filter set to 10 kHz in PATCHMASTER (HEKA Instruments, NY, United States) and performed at 27°C. Offline analysis was performed using Microsoft Excel, MatLab R2019a (MathWorks) and GraphPad Prism 8 (Molecular Devices).
# (§3) Voltage protocols were used, as previously described ([Richards et al., 2018]). Briefly, to study the voltage-dependence of activation, cells were held at −120 mV and depolarized to test potentials, in 5 mV increments, between −120 mV and +50 mV for 100 ms. To study steady-state fast inactivation, cells were held at conditioning pre-pulse potentials ranging from −120 mV to +30 mV in 5 mV increments from a holding potential of −120 mV and a test pulse at 5 mV for 20 ms. Recovery from fast inactivation was studied by pre-pulsing the cells to 0 mV from a holding potential of −120 mV for 50 ms, to fully inactivate channels. The voltage was then stepped back to the holding potential for variable interpulse intervals (ipi from 0 to 39 ms in 3 ms increments). To test channel availability, the voltage was stepped to 0 mV for 50 ms.
# (§4) To examine the voltage-dependence of activation, normalized current-voltage (I-V) relationships were converted to conductance (G) using the following equation: G = I/(V−V r ) where Vr is the reversal potential for Na^+. The voltage-dependence of conductance and availability were normalized and fitted to a Boltzmann equation: G = 1/(1 + exp [(V−V 0.5)/a]), where a is the slope of the half-maximum, V is the potential of the given pulse, and V 0.5 is the potential for the half-maximal activation/inactivation. The time course of inactivation was fitted to a single exponential function I/Imax = I0+A*exp (-t-t0/τ)+C, where I0 is the non-inactivating component, Imax is the peak current, t is time, and A is the component for the time constant τ. Time constants were plotted against voltage and the data fitted with a decaying exponential equation Y = span*exp (−K*x)+plateau, where span is the starting point of the curve, K is the decay factor, plateau is the value the curve decays to, and x is time. To measure recovery from inactivation, normalized currents were plotted against ipi and data fitted with equation I/I max = 1-exp/(rc + x), where I max is maximal current; rc recovery rate constant; x is time. Peak current (I) was plotted as fractional recovery against the recovery period by normalizing to the maximum current (Imax) during the conditioning potentials.
# [3] = target: T2, human NaV1.7 channel (SCN9A, CHO cells) (Homo sapiens, UniProt Q15858); assay: as above; type: cell-based; settings: change vs vehicle DMSO at IC50 concentration (CBD 11.9 μM, CBGA 16.4 μM, CBDVA 60 μM)
# T2 construct: expressed in transfected cells
# Procedure: as §1, §2, §3, §4
# [4] = target: T3, human NaV1.1 channel (SCN1A, HEK293T cells) (Homo sapiens, UniProt P35498); assay: as above; type: cell-based; settings: change vs vehicle DMSO at IC50 concentration (CBD 18.5 μM, CBGA 13.6 μM, CBDVA 50 μM)
# T3 construct: expressed in transfected cells
# Procedure: as §1, §2, §3, §4
# [5] = target: T4, human NaV1.2 channel (SCN2A, HEK293T cells) (Homo sapiens, UniProt Q99250); assay: as above; type: cell-based; settings: change vs vehicle DMSO at IC50 concentration (CBD 18.4 μM, CBGA 14.7 μM, CBDVA 60 μM)
# T4 construct: expressed in transfected cells
# Procedure: as §1, §2, §3, §4
# [6] = target: T2, human NaV1.7 channel (SCN9A, CHO cells); parameters: method as in Milligan et al., 2022; settings: NaV1.7 concentration-response of CBD; mean ± SEM; ref Milligan et al., 2022; cited from earlier work
# [7] = system: mouse models of neuropathic pain; parameters: method as in Abraham et al., 2020; Casey et al., 2022; settings: ref Abraham et al., 2020, Casey et al., 2022; cited from earlier work
# [8] = target: T3, human NaV1.1 channel (SCN1A, HEK293T cells); parameters: method as in Milligan et al., 2022; settings: NaV1.1 concentration-response of CBD; mean ± SEM; ref Milligan et al., 2022; cited from earlier work
# [9] = target: T1, human NaV1.6 channel (SCN8A, CHO cells); parameters: method as in Milligan et al., 2022; settings: NaV1.6 concentration-response of CBD; mean ± SEM; ref Milligan et al., 2022; cited from earlier work
# [10] = target: T4, human NaV1.2 channel (SCN2A, HEK293T cells); parameters: method as in Milligan et al., 2022; settings: NaV1.2 concentration-response of CBD; mean ± SEM; ref Milligan et al., 2022; cited from earlier work
# T4 sequence (Q99250 whole entry): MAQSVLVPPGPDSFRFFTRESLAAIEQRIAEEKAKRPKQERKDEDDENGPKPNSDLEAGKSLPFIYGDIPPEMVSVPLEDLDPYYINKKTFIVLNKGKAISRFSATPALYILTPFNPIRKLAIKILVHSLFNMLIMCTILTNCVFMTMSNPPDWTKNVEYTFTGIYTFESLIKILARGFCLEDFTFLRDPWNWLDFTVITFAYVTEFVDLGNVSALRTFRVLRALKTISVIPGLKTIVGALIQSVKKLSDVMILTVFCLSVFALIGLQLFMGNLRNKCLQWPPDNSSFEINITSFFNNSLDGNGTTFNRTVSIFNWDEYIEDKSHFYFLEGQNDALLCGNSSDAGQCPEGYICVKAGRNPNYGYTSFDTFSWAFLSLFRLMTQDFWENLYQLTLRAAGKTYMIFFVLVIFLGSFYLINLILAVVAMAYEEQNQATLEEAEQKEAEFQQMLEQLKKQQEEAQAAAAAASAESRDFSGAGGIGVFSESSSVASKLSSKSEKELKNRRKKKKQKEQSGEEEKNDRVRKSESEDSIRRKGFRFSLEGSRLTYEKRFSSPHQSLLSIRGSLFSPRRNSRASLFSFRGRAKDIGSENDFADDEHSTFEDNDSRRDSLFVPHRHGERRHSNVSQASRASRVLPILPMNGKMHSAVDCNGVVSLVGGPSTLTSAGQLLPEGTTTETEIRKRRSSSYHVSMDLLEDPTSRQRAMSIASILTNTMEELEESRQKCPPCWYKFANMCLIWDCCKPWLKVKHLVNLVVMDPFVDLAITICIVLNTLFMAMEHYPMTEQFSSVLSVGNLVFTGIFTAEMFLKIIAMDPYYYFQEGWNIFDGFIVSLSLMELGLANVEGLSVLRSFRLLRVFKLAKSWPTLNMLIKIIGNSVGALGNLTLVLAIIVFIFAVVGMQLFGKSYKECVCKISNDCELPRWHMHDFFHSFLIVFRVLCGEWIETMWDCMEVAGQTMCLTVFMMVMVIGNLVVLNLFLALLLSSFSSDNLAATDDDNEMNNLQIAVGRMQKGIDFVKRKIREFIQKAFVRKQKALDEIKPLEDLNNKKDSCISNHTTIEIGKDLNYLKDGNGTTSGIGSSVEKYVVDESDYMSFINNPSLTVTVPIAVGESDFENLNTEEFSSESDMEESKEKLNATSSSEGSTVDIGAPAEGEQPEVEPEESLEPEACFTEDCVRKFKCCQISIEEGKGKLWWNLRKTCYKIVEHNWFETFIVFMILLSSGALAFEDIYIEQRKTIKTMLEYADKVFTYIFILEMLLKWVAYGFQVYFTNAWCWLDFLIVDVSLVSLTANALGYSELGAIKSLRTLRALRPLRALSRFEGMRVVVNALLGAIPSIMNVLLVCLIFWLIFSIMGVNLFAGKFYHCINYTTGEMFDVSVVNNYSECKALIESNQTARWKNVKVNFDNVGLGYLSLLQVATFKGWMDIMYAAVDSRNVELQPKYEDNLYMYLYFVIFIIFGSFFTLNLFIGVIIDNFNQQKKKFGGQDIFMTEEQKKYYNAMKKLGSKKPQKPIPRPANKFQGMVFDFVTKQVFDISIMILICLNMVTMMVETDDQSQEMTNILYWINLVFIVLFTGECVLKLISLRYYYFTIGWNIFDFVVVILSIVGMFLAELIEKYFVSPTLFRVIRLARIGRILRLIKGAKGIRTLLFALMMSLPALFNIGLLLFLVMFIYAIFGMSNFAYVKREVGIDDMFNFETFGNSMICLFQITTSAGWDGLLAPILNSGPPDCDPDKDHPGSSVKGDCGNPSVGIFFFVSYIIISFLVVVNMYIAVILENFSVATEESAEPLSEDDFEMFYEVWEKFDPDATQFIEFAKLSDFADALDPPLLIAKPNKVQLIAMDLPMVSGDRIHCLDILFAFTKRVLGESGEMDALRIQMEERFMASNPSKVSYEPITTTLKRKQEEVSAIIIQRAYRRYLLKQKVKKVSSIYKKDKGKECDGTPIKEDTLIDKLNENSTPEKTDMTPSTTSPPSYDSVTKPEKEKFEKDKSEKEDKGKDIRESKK
# T1 sequence (Q9UQD0 whole entry): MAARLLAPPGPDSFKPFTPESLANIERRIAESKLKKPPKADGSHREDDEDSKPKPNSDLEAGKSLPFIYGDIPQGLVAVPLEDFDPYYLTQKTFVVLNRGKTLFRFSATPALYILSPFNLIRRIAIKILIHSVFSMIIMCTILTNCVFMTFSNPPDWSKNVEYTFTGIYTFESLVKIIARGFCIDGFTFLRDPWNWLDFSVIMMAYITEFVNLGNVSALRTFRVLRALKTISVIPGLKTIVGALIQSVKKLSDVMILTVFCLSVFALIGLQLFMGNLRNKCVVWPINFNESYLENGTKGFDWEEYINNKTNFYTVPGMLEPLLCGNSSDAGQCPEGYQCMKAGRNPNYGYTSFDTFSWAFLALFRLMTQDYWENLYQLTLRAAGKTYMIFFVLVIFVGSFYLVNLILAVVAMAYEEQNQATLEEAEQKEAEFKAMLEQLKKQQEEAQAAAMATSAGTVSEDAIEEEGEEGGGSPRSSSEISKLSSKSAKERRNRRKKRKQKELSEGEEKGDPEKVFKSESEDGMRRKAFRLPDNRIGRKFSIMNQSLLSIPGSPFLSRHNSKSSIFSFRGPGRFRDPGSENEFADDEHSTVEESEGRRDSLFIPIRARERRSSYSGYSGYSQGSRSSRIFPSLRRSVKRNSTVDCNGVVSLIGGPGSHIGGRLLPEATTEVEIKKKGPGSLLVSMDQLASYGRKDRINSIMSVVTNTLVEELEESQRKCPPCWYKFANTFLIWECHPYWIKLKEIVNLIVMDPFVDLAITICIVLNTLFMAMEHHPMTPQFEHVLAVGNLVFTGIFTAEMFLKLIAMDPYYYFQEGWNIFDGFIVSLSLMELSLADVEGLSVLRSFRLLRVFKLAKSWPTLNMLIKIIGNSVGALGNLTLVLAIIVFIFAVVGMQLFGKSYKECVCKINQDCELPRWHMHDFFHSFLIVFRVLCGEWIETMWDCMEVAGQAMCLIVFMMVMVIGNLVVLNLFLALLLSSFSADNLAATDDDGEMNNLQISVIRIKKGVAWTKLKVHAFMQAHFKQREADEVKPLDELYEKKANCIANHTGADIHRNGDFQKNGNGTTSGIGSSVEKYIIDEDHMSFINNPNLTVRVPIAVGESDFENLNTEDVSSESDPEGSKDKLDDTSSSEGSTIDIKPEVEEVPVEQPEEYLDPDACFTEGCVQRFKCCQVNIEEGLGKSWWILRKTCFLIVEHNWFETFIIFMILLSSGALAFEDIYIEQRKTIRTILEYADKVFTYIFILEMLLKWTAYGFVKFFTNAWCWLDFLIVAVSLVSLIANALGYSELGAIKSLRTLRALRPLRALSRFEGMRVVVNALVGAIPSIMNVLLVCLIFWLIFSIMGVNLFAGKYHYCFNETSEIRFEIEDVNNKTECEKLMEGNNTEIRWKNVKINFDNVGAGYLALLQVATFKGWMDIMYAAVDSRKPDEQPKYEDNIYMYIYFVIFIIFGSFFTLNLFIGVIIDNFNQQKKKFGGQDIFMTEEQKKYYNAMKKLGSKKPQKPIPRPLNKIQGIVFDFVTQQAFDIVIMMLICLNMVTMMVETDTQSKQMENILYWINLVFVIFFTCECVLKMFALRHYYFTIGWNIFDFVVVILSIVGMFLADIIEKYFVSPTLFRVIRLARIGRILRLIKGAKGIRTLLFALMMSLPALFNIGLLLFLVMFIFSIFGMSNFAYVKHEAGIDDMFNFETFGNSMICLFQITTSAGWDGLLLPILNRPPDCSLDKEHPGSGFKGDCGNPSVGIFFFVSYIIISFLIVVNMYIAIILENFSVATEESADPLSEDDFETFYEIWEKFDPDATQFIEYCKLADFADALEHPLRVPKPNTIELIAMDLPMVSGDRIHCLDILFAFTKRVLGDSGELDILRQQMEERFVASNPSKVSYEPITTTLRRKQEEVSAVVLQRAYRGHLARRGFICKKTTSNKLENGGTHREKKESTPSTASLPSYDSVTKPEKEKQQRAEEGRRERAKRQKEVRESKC
smiles,measurement,setting,value
"C=C(C)[C@@H]1CCC(C)=C[C@H]1c1c(O)cc(CCCCC)cc1O [CBD, cannabidiol, reference compound]",Effect on seizures in patients,[1],reduced seizures
same,Inactivation △ V0.5 inact,[2]; SSFI,−5.3 ± 3.6 mV
same,Inactivation △ slope factor,[2]; SSFI,−0.3 ± 0.7
same,Activation △ Slope factor,[2],0.2 ± 0.2
same,Activation △ V0.5 act,[2],−0.6 ± 1.1 mV
same,Inactivation △ τinact SSFI at 5 mV,[2],0.03 ± 0.06
same,Inactivation △ V0.5 inact,[3]; SSFI,−3.7 ± 1.2** mV
same,Inactivation △ slope factor,[3]; SSFI,1.2 ± 0.3***
same,Activation △ Slope factor,[3],1.9 ± 0.3****
same,Activation △ V0.5 act,[3],5.7 ± 2.3* mV
same,Inactivation △ τinact SSFI at 5 mV,[3],0.3 ± 0.1*
same,Inactivation △ V0.5 inact,[4]; SSFI,−5.6 ± 1.1**** mV
same,Inactivation △ slope factor,[4]; SSFI,0.5 ± 0.3
same,Activation △ Slope factor,[4],0.7 ± 0.2**
same,Activation △ V0.5 act,[4],0.3 ± 1.2 mV
same,Inactivation △ τinact SSFI at 5 mV,[4],0.03 ± 0.02
same,Inactivation △ V0.5 inact,[5]; SSFI,−4.2 ± 1.9 mV
same,Inactivation △ slope factor,[5]; SSFI,0.1 ± 0.2
same,Activation △ Slope factor,[5],1.0 ± 0.3*
same,Activation △ V0.5 act,[5],3.3 ± 2.7 mV
same,Inactivation △ τinact SSFI at 5 mV,[5],0.08 ± 0.07
same,Slope (Hill slope coefficient),[6],3.1 ± 0.6
same,Effect on allodynia,[7],reduced allodynia
same,Slope (Hill slope coefficient),[8],2.1 ± 0.8
same,Slope (Hill slope coefficient),[9],1.3 ± 0.4
same,Slope (Hill slope coefficient),[10],1.4 ± 0.4

# From PMC9986306, “Beyond CBD: Inhibitory effects of lesser studied phytocannabinoids on human voltage-gated sodium channels” (Frontiers in Physiology, 2023)
